These are literature values, as cited in US20020068684A1, “Stripping and cleaning compositions” (priority 1999, published 2002).

For the data set the following is noted: from CRC tables.

Each structure is given as a SMILES string.

Turning to `Oc1ccccc1O` [Catechol], the PKa was 9.85.
